According to paper PMC12486440, “Design, synthesis, and in silico studies of new benzofuran–pyrazole hybrids as multi-kinase inhibitors with potential antiproliferative activity” (RSC Advances, 2025):

Experiments:
UACC-62 = settings: Homo sapiens, UACC-62
[1] = test system: NCI 60 cancer cell line panel; assay: NCI 60 full panel summary
HL-60(TB) = assay: cells; settings: Homo sapiens
Pim-1 = Pim-1 (Homo sapiens, UniProt P11309); assay: PIM kinase inhibitory assay (ADP-Glo); type: biochemical
UO-31 = settings: Homo sapiens, UO-31
NCI/ADR-RES = settings: Homo sapiens, NCI/ADR-RES
Ovarian cancer subpanel = assay: NCI 60 subpanel summary; type: cell-based, human
HS 578T = settings: Homo sapiens
Renal cancer subpanel = assay: NCI 60 subpanel summary; type: cell-based, human
[2] = single dose 10 μM, non-small lung carcinoma
[3] = single dose 10 μM, colon cancer
[4] = single dose 10 μM, prostate carcinoma
[5] = single dose 10 μM, renal carcinoma
[6] = single dose 10 μM, ovarian carcinoma
[7] = Homo sapiens, subpanel mean graph midpoint, read-out: MG-MID (GI50)
[8] = full panel MG-MID / subpanel MG-MID

Sequence of Pim-1 (P11309 whole entry): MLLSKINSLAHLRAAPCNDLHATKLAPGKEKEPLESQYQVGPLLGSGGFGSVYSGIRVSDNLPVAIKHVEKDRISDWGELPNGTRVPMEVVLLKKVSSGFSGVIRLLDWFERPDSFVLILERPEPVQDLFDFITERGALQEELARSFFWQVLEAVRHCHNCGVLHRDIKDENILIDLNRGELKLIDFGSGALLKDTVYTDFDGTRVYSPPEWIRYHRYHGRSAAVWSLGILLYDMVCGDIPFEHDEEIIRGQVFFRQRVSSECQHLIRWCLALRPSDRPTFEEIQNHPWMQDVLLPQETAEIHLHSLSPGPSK

Compound `c1ccc(-n2cc(C3CC(c4nc5ccccc5[nH]4)=NN3)c(-c3cc4ccccc4o3)n2)cc1` (stereo not shown) [3d, 3-(Benzofuran-2-yl)-4-(3-(1H-benzo[d]imidazol-2-yl)-4,5-dihydro-1H-pyrazol-5-yl)-1-phenyl-1H-pyrazole] has a GI50 (K-562; Homo sapiens, K562) of 3.37 µM, a GI% (K-562; single dose 10 μM, leukemia) of 92.52% and a GI50 (A549/ATCC; Homo sapiens, A549) of 3.86 µM. For the same compound, the GI% (A549/ATCC; [2]) was 87.82%, the GI50 (SK-MEL-28; Homo sapiens, SK-MEL-28) was 4.58 µM and the GI% (SK-MEL-28; single dose 10 μM, melanoma) was 80.99%. The GI50 (UACC-62) was 1.84 µM, the GI50 (SF-268; Homo sapiens, SF-268) was 4.51 µM and the GI% (SF-268; single dose 10 μM, CNS cancer) was 72.21%. The GI50 (SNB-75; Homo sapiens, SNB-75) was 2.72 µM, the GI% (SNB-75; single dose 10 μM, CNS cancer) was 65.51% and the GI50 (HCT-15; Homo sapiens, HCT-15) was 3.18 µM. For the same compound, the GI% (HCT-15; [3]) was 83.02%, the GI50 (DU-145; Homo sapiens, DU-145) was 5.15 µM and the GI% (DU-145; [4]) was 67.57%. It also gave a GI50 (KM12; Homo sapiens, KM12) of 5.55 µM, a GI% (KM12; [3]) of 91.86% and a GI50 (NCI-H460; Homo sapiens, NCI-H460) of 3.64 µM. The GI% (NCI-H460; [2]) was 97.07%, the GI50 (TK-10; Homo sapiens, TK-10) was 4.97 µM and the GI% (TK-10; [5]) was 75.14%. For the same compound, the GI50 ([1]; Homo sapiens, read-out: Full panel MG-MID (GI50), five-dose assay, mean graph midpoint over full panel) was 4.2 µM, the CC50 ([1]; Homo sapiens, read-out: LC50) was over 100 µM and the “Mean GI%” value ([1]; single dose 10 μM, mean over the NCI 60 panel) was 83.58%. It also gave a GI50 (786–0; Homo sapiens, 786-0) of 4.31 µM, a GI% (786–0; [5]) of 71.73% and a GI50 (OVCAR-5; Homo sapiens, OVCAR-5) of 5.52 µM. The GI% (OVCAR-5; [6]) was 66.23%, the GI50 (IGROV1; Homo sapiens, IGROV-1) was 3.34 µM and the GI% (IGROV1; [6]) was 89.61%. It also gave a GI50 (T-47D; Homo sapiens, T47D) of 3.12 µM, a GI% (T-47D; single dose 10 μM, breast carcinoma) of 88.48% and a GI50 (NCI-H226; Homo sapiens, NCI-H226) of 6.62 µM. It also gave a GI% (NCI-H226; [2]) of 34.35%, a GI50 (HOP-62; Homo sapiens, HOP-62) of 3.66 µM and a GI% (HOP-62; [2]) of 74.46%. The GI50 (HL-60(TB)) was 2.56 µM, the GI50 (ACHN; Homo sapiens, ACHN) was 3.11 µM and the GI% (ACHN; [5]) was 92.45%. For the same compound, the IC50 (Pim-1) was 2.37 µM, the “times less sensitive, Pim-1, than to staurosporine” value (Pim-1; ratio of IC50 values) was 4.9 and the GI50 (EKVX; Homo sapiens, EKVX) was 2.69 µM. For the same compound, the GI% (EKVX; [2]) was 78.25%, the GI50 (CAKI-1; Homo sapiens, CAKI-1) was 2.57 µM and the GI% (CAKI-1; [5]) was 92.45%. For the same compound, the GI50 (NCI-H23; Homo sapiens, NCI-H23) was 3.69 µM, the GI% (NCI-H23; [2]) was 78.78% and the GI50 (MDA-MB-435; Homo sapiens, MDA-MB-435) was 4.24 µM. It also gave a GI% (MDA-MB-435; single dose 10 μM, melanoma) of 83.49%, a GI50 (LOX IMVI; Homo sapiens, LOX IMVI) of 3.71 µM and a GI% (LOX IMVI; single dose 10 μM, melanoma) of 75.62%. It also gave a GI50 (PC-3; Homo sapiens, PC-3) of 3.47 µM, a GI% (PC-3; [4]) of 91.14% and a GI50 (SF-295; Homo sapiens, SF-295) of 2.59 µM. For the same compound, the GI% (SF-295; single dose 10 μM, CNS cancer) was 84.73%, the GI50 (UO-31) was 2.1 µM and the GI50 (NCI/ADR-RES) was 3.16 µM. The GI50 (Ovarian cancer subpanel; [7]) was 4.32 µM, the Selectivity index (Ovarian cancer subpanel; [8]) was 0.97 and the GI50 (OVCAR-4; Homo sapiens, OVCAR-4) was 3.51 µM. For the same compound, the GI% (OVCAR-4; [6]) was 66.52%, the GI50 (HS 578T) was 7.94 µM and the GI50 (Renal cancer subpanel; [7]) was 4.93 µM. The Selectivity index (Renal cancer subpanel; [8]) was 0.85.
